Experimental data taken from US4436751A, “Nitrobenzyl monates antibacterial compounds” (Beecham Group Limited, priority 1980, dated 1984).
In brackets after ≈: the same amount, converted by molar mass. Like-named read-outs stand apart in the source and are kept apart here.

Tests used:
Assay type in all cases: cell-based
[1] = system: M. suipneumoniae NB12; experiment: Anti-mycoplasmal MIC in vitro, Friis broth agarose (Table 1); details: Mesomycoplasma hyopneumoniae, NB12, 144 h
[2] = system: M. suipneumoniae JF 435; experiment: as above; details: Mesomycoplasma hyopneumoniae, JF435, 144 h
[3] = system: M. suipneumoniae Str. 11; experiment: as above; details: Mesomycoplasma hyopneumoniae, STR.11, 144 h
[4] = system: M. suipneumoniae PW/C/210; experiment: as above; details: Mesomycoplasma hyopneumoniae, 144 h
[5] = system: M. suipneumoniae OCD 1; experiment: as above; details: Mesomycoplasma hyopneumoniae, OCD1, 144 h
[6] = system: M. suipneumoniae TAM 6N; experiment: as above; details: Mesomycoplasma hyopneumoniae, TAM6N, 144 h
[7] = system: M. suipneumoniae ATCC 25095; experiment: as above; details: Mesomycoplasma hyopneumoniae, ATCC25095, 144 h
[8] = system: M. hyosynoviae ATOC 25591; experiment: as above; details: 144 h
[9] = system: M. bovis RCTC 10131; experiment: microbe, parasite or virus in culture; details: RCTC10131, 144 h
[10] = system: M. bovigenitalium ATOC 14173; experiment: Anti-mycoplasmal MIC in vitro, Friis broth agarose (Table 1); details: 144 h
[11] = system: M. dispar RCTC 10125; experiment: as above; details: 144 h
[12] = system: E. Coli NCTC 10418; experiment: Veterinary bacteria MIC, Diagnostic Sensitivity Test Agar (Table 2); details: Escherichia coli, NCTC10418, 18 h
Description: (§1) The values were determined using a two fold serial dilutions in Diagnostic Sensitivity Test Agar with an inoculum of 10^4 organisms and incubation for 18 hours at 37° C.

[13] = system: Erysipelothrix rhusiopathiae NCTC 8163; experiment: as above
Description: as §1

[14] = system: Staph. aureus B4; experiment: as above; details: Staphylococcus aureus
Description: as §1

[15] = system: Bacillus subtilis 6633; experiment: Human bacteria MIC, nutrient agar with chocolated horse blood (Table 3)
Description: (§2) The values were determined by serial dilutions in nutrient agar with 5% chocolated horse blood after incubations for 18 hours at 37° C.

[16] = system: Corynebacterium xerosis 9755; experiment: as above
Description: as §2

[17] = system: E. Coli NCTC 10418; experiment: as above; details: Escherichia coli
Description: as §2

[18] = system: Haemophilus influenzae Q1; experiment: as above
Description: as §2

[19] = system: K. aerogenes A; experiment: as above; details: Klebsiella aerogenes
Description: as §2

[20] = system: P. mirabilis 889; experiment: as above
Description: as §2

[21] = system: Pasteurella multocida 1633; experiment: as above
Description: as §2

[22] = system: Ps. aeruginosa NCTC 10662; experiment: as above; details: Pseudomonas aeruginosa
Description: as §2

[23] = system: Sarcina lutea 8340; experiment: as above
Description: as §2

[24] = system: Staph. aureus Oxford; experiment: as above; details: Staphylococcus aureus
Description: as §2

[25] = system: Staph. aureus Russell; experiment: as above; details: Staphylococcus aureus
Description: as §2

[26] = system: Staph. aureus W2827; experiment: as above; details: Staphylococcus aureus
Description: as §2

[27] = system: Strep. faecalis 1; experiment: as above
Description: as §2

[28] = system: Strep. pyogenes R80/421-A; experiment: as above; details: Streptococcus pyogenes
Description: as §2

[29] = Erysipelothrix rhusiopathiae, NCTC8163, 18 h
[30] = Corynebacterium xerosis, 9755, 18 h
[31] = Haemophilus influenzae, Q1, 18 h
[32] = Pasteurella multocida, 1633, 18 h

C/C(=C\C(=O)OCc1cc([N+](=O)[O-])cc([N+](=O)[O-])c1C)CC1OCC(CC2OC2C(C)C(C)O)C(O)C1O (stereo not shown) [Example 7, 3,5-dinitro-2-methylbenzyl monate A]
MIC [1]: 0.25 µg/mL (≈ 0.464 µM)
MIC [2]: 0.25 µg/mL (≈ 0.464 µM)
MIC [3]: 0.1 µg/mL (≈ 0.186 µM)
MIC [4]: 0.1 µg/mL (≈ 0.186 µM)
MIC [5]: 0.25 µg/mL (≈ 0.464 µM)
MIC [6]: 0.25 µg/mL (≈ 0.464 µM)
MIC [7]: 0.25 µg/mL (≈ 0.464 µM)
MIC [8]: 0.1 µg/mL (≈ 0.186 µM)
MIC [9]: ≤ 0.1 µg/mL
MIC [10]: ≤ 0.1 µg/mL
MIC [11]: 0.05 µg/mL (≈ 0.0928 µM)
MIC [12]: > 80 µg/mL
MIC [13, 29]: 10 µg/mL (≈ 18.6 µM)
MIC ([14]; B4, 18 h): 0.625 µg/mL (≈ 1.16 µM)
MIC ([15]; Bacillus subtilis, 6633, 18 h): 1 µg/mL (≈ 1.86 µM)
MIC [16, 30]: > 100 µg/mL
MIC ([17]; NCTC10418, 18 h): > 100 µg/mL
MIC [18, 31]: 1 µg/mL (≈ 1.86 µM)
MIC ([19]; 18 h): > 100 µg/mL
MIC ([20]; Proteus mirabilis, 889, 18 h): > 100 µg/mL
MIC [21, 32]: 5 µg/mL (≈ 9.28 µM)
MIC ([22]; NCTC10662, 18 h): > 100 µg/mL
MIC ([23]; Micrococcus luteus, 8340, 18 h): > 100 µg/mL
MIC ([24]; 18 h): 1 µg/mL (≈ 1.86 µM)
MIC ([25]; 18 h): 1 µg/mL (≈ 1.86 µM)
MIC ([26]; W2827, 18 h): 2.5 µg/mL (≈ 4.64 µM)
MIC ([27]; Enterococcus faecalis, 1, 18 h): > 100 µg/mL
MIC ([28]; R80/421A, 18 h): 0.25 µg/mL (≈ 0.464 µM)

C/C(=C\C(=O)OCc1cc([N+](=O)[O-])cc([N+](=O)[O-])c1)CC1OCC(CC2OC2C(C)C(C)O)C(O)C1O (stereo not shown) [Example 6, 3,5-dinitrobenzyl monate A]
MIC [1]: 0.05 µg/mL (≈ 0.0953 µM)
MIC [2]: 0.05 µg/mL (≈ 0.0953 µM)
MIC [3]: 0.025 µg/mL (≈ 0.0477 µM)
MIC [4]: 0.025 µg/mL (≈ 0.0477 µM)
MIC [5]: 0.05 µg/mL (≈ 0.0953 µM)
MIC [6]: 0.05 µg/mL (≈ 0.0953 µM)
MIC [7]: 0.05 µg/mL (≈ 0.0953 µM)
MIC [8]: 0.025 µg/mL (≈ 0.0477 µM)
MIC [9]: ≤ 0.01 µg/mL
MIC [10]: ≤ 0.01 µg/mL
MIC [11]: ≤ 0.01 µg/mL
MIC [12]: 80 µg/mL (≈ 153 µM)
MIC [13, 29]: 20 µg/mL (≈ 38.1 µM)
MIC ([14]; B4, 18 h): 0.312 µg/mL (≈ 0.595 µM)
MIC ([15]; Bacillus subtilis, 6633, 18 h): 0.5 µg/mL (≈ 0.953 µM)
MIC [16, 30]: > 100 µg/mL
MIC ([17]; NCTC10418, 18 h): 100 µg/mL (≈ 191 µM)
MIC [18, 31]: 0.5 µg/mL (≈ 0.953 µM)
MIC ([19]; 18 h): 100 µg/mL (≈ 191 µM)
MIC ([20]; Proteus mirabilis, 889, 18 h): 100 µg/mL (≈ 191 µM)
MIC [21, 32]: 0.5 µg/mL (≈ 0.953 µM)
MIC ([22]; NCTC10662, 18 h): > 100 µg/mL
MIC ([23]; Micrococcus luteus, 8340, 18 h): > 100 µg/mL
MIC ([24]; 18 h): 0.5 µg/mL (≈ 0.953 µM)
MIC ([25]; 18 h): 1 µg/mL (≈ 1.91 µM)
MIC ([26]; W2827, 18 h): 1 µg/mL (≈ 1.91 µM)
MIC ([27]; Enterococcus faecalis, 1, 18 h): > 100 µg/mL
MIC ([28]; R80/421A, 18 h): 0.25 µg/mL (≈ 0.477 µM)

C/C(=C\C(=O)OCc1ccc([N+](=O)[O-])c([N+](=O)[O-])c1)CC1OCC(CC2OC2C(C)C(C)O)C(O)C1O (stereo not shown) [Example 9, 3,4-dinitrobenzyl monate A]
MIC [1]: 0.25 µg/mL (≈ 0.477 µM)
MIC [2]: 1 µg/mL (≈ 1.91 µM)
MIC [3]: 0.25 µg/mL (≈ 0.477 µM)
MIC [4]: 0.25 µg/mL (≈ 0.477 µM)
MIC [5]: 0.5 µg/mL (≈ 0.953 µM)
MIC [6]: 0.5 µg/mL (≈ 0.953 µM)
MIC [7]: 0.25 µg/mL (≈ 0.477 µM)
MIC [8]: 0.5 µg/mL (≈ 0.953 µM)
MIC [9]: ≤ 0.01 µg/mL
MIC [10]: ≤ 0.01 µg/mL
MIC [11]: 0.025 µg/mL (≈ 0.0477 µM)
MIC [12]: 80 µg/mL (≈ 153 µM)
MIC [13, 29]: 40 µg/mL (≈ 76.3 µM)
MIC ([14]; B4, 18 h): 0.625 µg/mL (≈ 1.19 µM)
MIC ([15]; Bacillus subtilis, 6633, 18 h): 0.5 µg/mL (≈ 0.953 µM)
MIC [16, 30]: > 100 µg/mL
MIC ([17]; NCTC10418, 18 h): 50 µg/mL (≈ 95.3 µM)
MIC [18, 31]: 0.25 µg/mL (≈ 0.477 µM)
MIC ([19]; 18 h): 100 µg/mL (≈ 191 µM)
MIC ([20]; Proteus mirabilis, 889, 18 h): 50 µg/mL (≈ 95.3 µM)
MIC [21, 32]: 2.5 µg/mL (≈ 4.77 µM)
MIC ([22]; NCTC10662, 18 h): > 100 µg/mL
MIC ([23]; Micrococcus luteus, 8340, 18 h): > 100 µg/mL
MIC ([24]; 18 h): 1 µg/mL (≈ 1.91 µM)
MIC ([25]; 18 h): 2.5 µg/mL (≈ 4.77 µM)
MIC ([26]; W2827, 18 h): 1 µg/mL (≈ 1.91 µM)
MIC ([27]; Enterococcus faecalis, 1, 18 h): 25 µg/mL (≈ 47.7 µM)
MIC ([28]; R80/421A, 18 h): 0.25 µg/mL (≈ 0.477 µM)

C/C(=C\C(=O)OCc1cccc([N+](=O)[O-])c1C)CC1OCC(CC2OC2C(C)C(C)O)C(O)C1O (stereo not shown) [Example 8, 2-methyl-3-nitrobenzyl monate A]
MIC [1]: 0.1 µg/mL (≈ 0.203 µM)
MIC [2]: 0.1 µg/mL (≈ 0.203 µM)
MIC [3]: 0.1 µg/mL (≈ 0.203 µM)
MIC [4]: 0.1 µg/mL (≈ 0.203 µM)
MIC ([5]; M. suipneumoniae OCD 1, in vitro, 6 days 37° C., read-out: MIC): 0.25 µg/mL (≈ 0.507 µM)
MIC ([6]; M. suipneumoniae TAM 6N, in vitro, 6 days 37° C., read-out: MIC): 0.25 µg/mL (≈ 0.507 µM)
MIC [7]: 0.1 µg/mL (≈ 0.203 µM)
MIC ([8]; M. hyosynoviae ATOC 25591, in vitro, 6 days 37° C., read-out: MIC): 0.05 µg/mL (≈ 0.101 µM)
MIC [9]: < 0.01 µg/mL
MIC ([10]; M. bovigenitalium ATOC 14173, in vitro, 6 days 37° C., read-out: MIC): 0.025 µg/mL (≈ 0.0507 µM)
MIC ([11]; M. dispar RCTC 10125, in vitro, 6 days 37° C., read-out: MIC): 0.05 µg/mL (≈ 0.101 µM)
MIC [12]: > 80 µg/mL
MIC ([13]; NCTC8163, Erysipelothrix rhusiopathiae NCTC 8163, DST Agar, 10^4 organisms, 18 hours 37° C., read-out: MIC): 20 µg/mL (≈ 40.5 µM)
MIC ([14]; Staph. aureus B4, DST Agar, 10^4 organisms, 18 hours 37° C., read-out: MIC): 0.625 µg/mL (≈ 1.27 µM)
MIC ([15]; Bacillus subtilis 6633, nutrient agar 5% chocolated horse blood, 18 hours 37° C., read-out: MIC): 0.25 µg/mL (≈ 0.507 µM)
MIC ([16]; Corynebacterium xerosis 9755, nutrient agar 5% chocolated horse blood, 18 hours 37° C., read-out: MIC): > 100 µg/mL
MIC ([17]; NCTC10418, E. coli NCTC 10418, nutrient agar 5% chocolated horse blood, 18 hours 37° C., read-out: MIC): > 100 µg/mL
MIC ([18]; Haemophilus influenzae Q1, nutrient agar 5% chocolated horse blood, 18 hours 37° C., read-out: MIC): 0.5 µg/mL (≈ 1.01 µM)
MIC ([19]; K. aerogenes A, nutrient agar 5% chocolated horse blood, 18 hours 37° C., read-out: MIC): > 100 µg/mL
MIC ([20]; Proteus mirabilis, P. mirabilis 889, nutrient agar 5% chocolated horse blood, 18 hours 37° C., read-out: MIC): > 100 µg/mL
MIC ([21]; Pasteurella multocida 1633, nutrient agar 5% chocolated horse blood, 18 hours 37° C., read-out: MIC): 2.5 µg/mL (≈ 5.07 µM)
MIC ([22]; NCTC10662, Ps. aeruginosa NCTC 10662, nutrient agar 5% chocolated horse blood, 18 hours 37° C., read-out: MIC): > 100 µg/mL
MIC ([23]; Micrococcus luteus, Sarcina lutea 8340, nutrient agar 5% chocolated horse blood, 18 hours 37° C., read-out: MIC): > 100 µg/mL
MIC ([24]; Staph. aureus Oxford, nutrient agar 5% chocolated horse blood, 18 hours 37° C., read-out: MIC): 2.5 µg/mL (≈ 5.07 µM)
MIC ([25]; Staph. aureus Russell, nutrient agar 5% chocolated horse blood, 18 hours 37° C., read-out: MIC): 2.5 µg/mL (≈ 5.07 µM)
MIC ([26]; Staph. aureus W2827, nutrient agar 5% chocolated horse blood, 18 hours 37° C., read-out: MIC): 2.5 µg/mL (≈ 5.07 µM)
MIC ([27]; Enterococcus faecalis, Strep. faecalis 1, nutrient agar 5% chocolated horse blood, 18 hours 37° C., read-out: MIC): 50 µg/mL (≈ 101 µM)
MIC ([28]; Strep. pyogenes R80/421-A, nutrient agar 5% chocolated horse blood, 18 hours 37° C., read-out: MIC): 0.25 µg/mL (≈ 0.507 µM)
